The target in the experiment is hTREM2 (Homo sapiens, UniProt Q9NZC2). In words: TREM2 activity by cellular Syk phosphorylation (AlphaScreen/AlphaLISA) in TREM2/DAP12-HEK cells, used for Examples 1-305. The class given is cell-based. Set-up: expressed in transfected cells. The note with it: HEK293 Cells. The procedure, abridged:
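Phospho-Syk (Tyr525/526) over total Syk quantified by AlphaScreen in lysates of cloned TREM2/DAP12-overexpressing HEK293 cells after 45 min compound treatment at room temperature, 1% final DMSO. Values expressed relative to 100 nM anti-TREM2 antibody (positive) and isotype IgG (negative) controls; curves fitted with 4-parameter logistic model.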

What is called EC50 is the concentration at which the effect is half-maximal. Lower therefore signals an effect from little substance.

hTREM2, sequence (Q9NZC2 19-230): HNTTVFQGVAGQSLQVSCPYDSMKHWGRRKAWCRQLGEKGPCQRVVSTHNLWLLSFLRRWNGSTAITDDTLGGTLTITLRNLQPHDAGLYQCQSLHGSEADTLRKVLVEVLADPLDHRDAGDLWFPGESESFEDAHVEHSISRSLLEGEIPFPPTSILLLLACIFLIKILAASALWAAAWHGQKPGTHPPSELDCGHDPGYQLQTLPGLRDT
hTREM2, sequence (O43914 22-113 partner): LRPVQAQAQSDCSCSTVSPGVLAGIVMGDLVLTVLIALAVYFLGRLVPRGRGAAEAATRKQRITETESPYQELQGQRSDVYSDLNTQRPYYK

In the case of `Cc1nc2nc(N3CCO[C@@H](c4cnn(C)c4)C3)nc(-c3ccc(Cl)cc3F)c2cc1Cl` [Example 116, 6-chloro-4-(4-chloro-2-fluorophenyl)-7-methyl-2-((2S)-2-(1-methyl-1H-pyrazol-4-yl)-4-morpholinyl)pyrido[2,3-d]pyrimidine], the EC50 was not above 50 nM; the “hTREM2 Emax” value is “+++ (Emax>150 and ≤250)”.

As to `Cc1cc2c(-c3ccc(Cl)cc3F)nc([C@H]3CCO[C@@H](c4cnn(C)c4)C3)nc2nc1C` (single isomer, unassigned) [Example 224], the EC50 is not above 50 nM; the “hTREM2 Emax” value was “+++ (Emax>150 and ≤250)”.

In the case of `Cc1nc2nc([C@@H]3C[C@@H](C)O[C@@H](c4cnn(C)c4)C3)cc(-c3ccc(Cl)cc3F)c2nc1C` [Example 284, 8-(4-chloro-2-fluorophenyl)-2,3-dimethyl-6-((2R,4R,6R)-2-methyl-6-(1-methyl-1H-pyrazol-4-yl)tetrahydro-2H-pyran-4-yl)pyrido[2,3-b]pyrazine], the EC50 lay in the range of 50 to 500 nM; the “hTREM2 Emax” value was “+ (Emax>45 and ≤100)”.

`Cc1nc2nc([C@@H]3CCO[C@@H](c4cnn(C)c4)C3)nc([C@H]3C[C@H](C(F)(F)F)C3)c2nc1C` (single isomer, unassigned) [Example 204]: the EC50 was in the range of 500 to 3000 nM and the “hTREM2 Emax” value is reported as “++++ (Emax>250)”.

As for `Cc1nc2nc(N3CCO[C@@H](c4cnn(C)c4)C3)nc(C3=CC[C@H](C(F)(F)F)CC3)c2nc1C` (single isomer, unassigned) [Example 126], the EC50 fell in the range of 50 to 500 nM; the “hTREM2 Emax” value was “+ (Emax>45 and ≤100)”.

`Cc1cc([C@@H]2CN(c3nc(-c4ccc(Cl)cc4F)c4ccc(C)nc4n3)CCO2)cnn1` (single isomer, unassigned) [Example 87]: the EC50 lay within 50 to 500 nM and the “hTREM2 Emax” value was “++++ (Emax>250)”.

Regarding `Cc1nc2nc(N3CCO[C@@H](c4cnn(C)c4)C3)nc(-c3cc(F)c(F)cc3F)c2nc1C` [Example 62, 6,7-dimethyl-2-((2S)-2-(1-methyl-1H-pyrazol-4-yl)-4-morpholinyl)-4-(2,4,5-trifluorophenyl)pteridine], the EC50 was not above 50 nM and the “hTREM2 Emax” value is reported as “++++ (Emax>250)”.

In the case of `Cc1nc2nc(N3CCO[C@@H](c4cnn(C5CC5)c4)C3)nc([C@H]3C[C@H](C(F)(F)F)C3)c2nc1C` [Example 50, 2-((2S)-2-(1-cyclopropyl-1H-pyrazol-4-yl)-4-morpholinyl)-6,7-dimethyl-4-(trans-3-(trifluoromethyl)cyclobutyl)pteridine], the EC50 is not above 50 nM; the “hTREM2 Emax” value is “+++ (Emax>150 and ≤250)”.

Regarding `Cc1nc2nc([C@H]3CCO[C@@H](c4cnn(C)c4)C3)nc(-c3ccc(Cl)cc3F)c2nc1C` (single isomer, unassigned) [Example 178], the EC50 was not above 50 nM and the “hTREM2 Emax” value is listed as “++++ (Emax>250)”.

With `COc1cc([C@H]2CN(c3cc4nc(C)cnc4c(-c4ccc(Cl)cc4F)n3)CCO2)ccn1` [Example 78, 5-(4-chloro-2-fluorophenyl)-7-((2S)-2-(2-methoxy-4-pyridinyl)-4-morpholinyl)-2-methylpyrido[3,4-b]pyrazine], the EC50 was in the range of 50 to 500 nM; the “hTREM2 Emax” value is “+++ (Emax>150 and ≤250)”.

Take `CN1Cc2c(cc(N3CCO[C@@H](c4cnn(C)c4)C3)nc2-c2ccc(Cl)cc2F)C1=O` [Example 119, 4-(4-chloro-2-fluorophenyl)-2-methyl-6-((2S)-2-(1-methyl-1H-pyrazol-4-yl)-4-morpholinyl)-2,3-dihydro-1H-pyrrolo[3,4-c]pyridin-1-one]: the EC50 was 50 to 500 nM; the “hTREM2 Emax” value was “++ (Emax>100 and ≤150)”.

For `Cc1nc2nc(N3CCC(F)(F)[C@H](c4cnn(C)c4)C3)nc(-c3ccc(Cl)cc3F)c2nc1C` (single isomer, unassigned) [Example 124], the EC50 is not above 50 nM and the “hTREM2 Emax” value was “++++ (Emax>250)”.

As for `Cc1cc([C@@H]2C[C@H](c3cc4nc(C)c(C)nc4c(-c4ccc(Cl)cc4F)n3)CCO2)ccn1` (relative stereo) [Example 217, 5-(4-chloro-2-fluorophenyl)-2,3-dimethyl-7-((2S,4R)-2-(2-methyl-4-pyridinyl)tetrahydro-2H-pyran-4-yl)pyrido [3,4-b]pyrazine], the EC50 lay in the range of 50 to 500 nM; the “hTREM2 Emax” value was “+++ (Emax>150 and ≤250)”.

On to `Cc1nc2nc([C@H]3CCO[C@@H](c4cnn(C)c4)C3)nc(-c3ccc(F)cc3F)c2nc1C` (single isomer, unassigned) [Example 182], for which the EC50 is not above 50 nM; the “hTREM2 Emax” value is “+++ (Emax>150 and ≤250)”.

Regarding `Cc1nc2nc([C@H]3CCO[C@@H](c4cnn(C)c4)C3)cc(-c3ccc(Cl)cc3F)c2nc1C` (single isomer, unassigned) [Example 187], the EC50 is not above 50 nM; the “hTREM2 Emax” value was “+++ (Emax>150 and ≤250)”.

In the case of `Cc1nc2nc(N3CCO[C@H]([C@@H]4CCOC4)C3)nc(-c3ccc(F)cc3F)c2nc1C` [Example 243, (R)-4-(4-(2,4-difluorophenyl)-6,7-dimethylpteridin-2-yl)-2-((R)-tetrahydrofuran-3-yl)morpholine], the EC50 lay in the range of 50 to 500 nM and the “hTREM2 Emax” value is listed as “++++ (Emax>250)”.

`Cc1cc([C@@H]2C[C@@H](c3nc(-c4ccc(F)cc4F)c4cc(C)c(C)nc4n3)CCO2)ccn1` (single isomer, unassigned) [Example 227]: the EC50 is not above 50 nM; the “hTREM2 Emax” value is “+++ (Emax>150 and ≤250)”.

With `Cc1ccc(-c2nc([C@@H]3CCO[C@@H](c4ccnc(C)c4)C3)nc3nc(C)c(C)nc23)c(F)c1` [Example 285, 4-(2-fluoro-4-methylphenyl)-6,7-dimethyl-2-((2R,4R)-2-(2-methylpyridin-4-yl)tetrahydro-2H-pyran-4-yl)pteridine], the concentration giving a half-maximal response (EC50) lay within 50 to 500 nM and the “hTREM2 Emax” value was “++++ (Emax>250)”.

Regarding `Cc1nc2nc(N3CCO[C@@H]([C@H]4CCOC4)C3)nc(-c3ccc(F)cc3F)c2nc1C` [Example 251, (S)-4-(4-(2,4-difluorophenyl)-6,7-dimethylpteridin-2-yl)-2-((S)-tetrahydrofuran-3-yl)morpholine], the EC50 was 500 to 3000 nM; the “hTREM2 Emax” value is “+++ (Emax>150 and ≤250)”.

As to `Cc1nc2cc([C@@H]3CCO[C@H](c4cnn(C5CC5)c4)C3)nc(-c3ccc(Cl)cc3F)c2nc1C` [Example 297, 5-(4-chloro-2-fluorophenyl)-7-((2S,4R)-2-(1-cyclopropyl-1H-pyrazol-4-yl)tetrahydro-2H-pyran-4-yl)-2,3-dimethylpyrido[3,4-b]pyrazine], the EC50 was 3000 to 100000 nM.

For `Cc1nc2nc(N3CCO[C@@H](c4cnn(C)c4)C3)nc([C@@H]3CCC(C)(C)C3)c2nc1C` [Example 303, (S)-4-(4-((R)-3,3-dimethylcyclopentyl)-6,7-dimethylpteridin-2-yl)-2-(1-methyl-1H-pyrazol-4-yl)morpholine], the EC50 is 50 to 500 nM; the “hTREM2 Emax” value was “++ (Emax>100 and ≤150)”.

As for `Cc1nc2nc([C@@H]3CCO[C@H](c4cnn(C5CC5)c4)C3)nc(-c3ccc(Cl)cc3F)c2nc1C` (single isomer, unassigned) [Example 180], the EC50 lay in the range of 50 to 500 nM; the “hTREM2 Emax” value was “+++ (Emax>150 and ≤250)”.

For `Cc1cc([C@@H]2C[C@H](c3nc(-c4ccc(F)cc4F)c4nc(C)c(C)nc4n3)CCO2)ccn1` (single isomer, unassigned) [Example 210], the EC50 lay in the range of 50 to 500 nM and the “hTREM2 Emax” value is listed as “++++ (Emax>250)”.

As to `Cc1nc2nc(N3CCO[C@@H](c4cnn(C)c4)C3)nc(C3=CC[C@@H](C(F)(F)F)CC3)c2nc1C` (single isomer, unassigned) [Example 127], the EC50 was not above 50 nM; the “hTREM2 Emax” value was “++ (Emax>100 and ≤150)”.

Turning to `Cc1ccc(-c2nc([C@@H]3CCO[C@H](c4cnn(C)c4)C3)nc3nc(C)c(C)cc23)c(F)c1` (single isomer, unassigned) [Example 202], the EC50 is 500 to 3000 nM; the “hTREM2 Emax” value was “++ (Emax>100 and ≤150)”.

For `Cc1nc2nc(N3CCO[C@@H]([C@@H]4CCOC4)C3)nc(-c3ccc(F)cc3F)c2nc1C` (single isomer, unassigned) [Example 34], the EC50 is 500 to 3000 nM; the “hTREM2 Emax” value is “+++ (Emax>150 and ≤250)”.

In the case of `Cc1ccc(-c2nc(N3CCO[C@@H](c4ccnc(C)c4)C3)nc3nc(C)c(C)nc23)c(F)c1` [Example 39, 4-(2-fluoro-4-methylphenyl)-6,7-dimethyl-2-((2S)-2-(2-methyl-4-pyridinyl)-4-morpholinyl)pteridine], the EC50 was not above 50 nM; the “hTREM2 Emax” value is “+++ (Emax>150 and ≤250)”.

As for `CCn1cc([C@H]2CN(c3cc4nc(C)cnc4c(-c4ccc(Cl)cc4F)n3)CCO2)cn1` [Example 75, 5-(4-chloro-2-fluorophenyl)-7-((2S)-2-(1-ethyl-1H-pyrazol-4-yl)-4-morpholinyl)-2-methylpyrido[3,4-b]pyrazine], the EC50 lay within 50 to 500 nM and the “hTREM2 Emax” value is reported as “++++ (Emax>250)”.

On to `Cc1cc([C@H]2CN(c3nc(-c4ccc(Cl)cc4F)c4ccc(C)nc4n3)CCO2)cnn1` (single isomer, unassigned) [Example 86], for which the EC50 is not above 50 nM and the “hTREM2 Emax” value is given as “++++ (Emax>250)”.

Consider `Cc1cc([C@@H]2C[C@@H](c3nc(-c4ccc(Cl)cc4F)c4ccc(C)nc4n3)CCO2)ccn1` (single isomer, unassigned) [Example 220], for which the EC50 fell in the range of 50 to 500 nM; the “hTREM2 Emax” value is “+++ (Emax>150 and ≤250)”.

With `Cc1nc2nc(N3CCO[C@@H](c4cnn(C)c4)C3)nc([C@H]3C[C@H](C(F)F)C3)c2nc1C` [Example 45, 4-(trans-3-(difluoromethyl)cyclobutyl)-6,7-dimethyl-2-((2S)-2-(1-methyl-1H-pyrazol-4-yl)-4-morpholinyl)pteridine], the EC50 is 50 to 500 nM; the “hTREM2 Emax” value is “++ (Emax>100 and ≤150)”.

The record behind these values is US11884675B2, “Heterocyclic compounds as triggering receptor expressed on myeloid cells 2 agonists and methods of use” (AMGEN INC., priority 2020, dated 2024).
